# Reference: patent US20230233569A1 (Revolution Medicines, Inc., priority 2020, published 2023)
# Like-named read-outs stand apart in the source and are kept apart here.
# Experiments:
# Experiment in all cases: Ras-Raf disruption / FRET / MOA assay (BRAF RBD)
# Format in all cases: biochemical
# KRAS G12D = KRAS G12D (Homo sapiens, UniProt P01116+P62937, G12D); conditions: with Cyclophilin A
# In short: (§1)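 TR-FRET in 25 mM HEPES pH 7.3, 100 mM NaCl, 5 mM MgCl2, 0.1% BSA, 0.002% Tween20 with 25 μM Cyclophilin A, 12.5 nM His6-Ras-GMPPNP, 50 nM GST-BRAF RBD; compound 10-point 3-fold series from 30 μM. After 3 h at 25 °C, Eu anti-His/APC anti-GST added for 1.5 h; IC50 from ratio decrease versus DMSO.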
# KRAS G12S = KRAS G12S (Homo sapiens, UniProt P01116+P62937, G12S); conditions: with Cyclophilin A
# In short: as §1
# KRAS G12V = KRAS G12V (Homo sapiens, UniProt P01116+P62937, G12V); conditions: with Cyclophilin A
# In short: as §1
# KRAS G13C = KRAS G13C (Homo sapiens, UniProt P01116+P62937, G13C); conditions: with Cyclophilin A
# In short: as §1
# KRAS G13D = KRAS G13D (Homo sapiens, UniProt P01116+P62937, G13D); conditions: with Cyclophilin A
# In short: as §1
# KRAS Q61H = KRAS Q61H (Homo sapiens, UniProt P01116+P62937, Q61H)
# In short: as §1
# KRAS WT = KRAS WT (Homo sapiens, UniProt P01116+P62937); conditions: with Cyclophilin A
# In short: as §1
# NRAS G12C = NRAS G12C (Homo sapiens, UniProt P01111+P62937, G12C)
# In short: as §1
# NRAS Q61K = NRAS Q61K (Homo sapiens, UniProt P01111+P62937, Q61K)
# In short: as §1
# NRAS Q61R = NRAS Q61R (Homo sapiens, UniProt P01111+P62937, Q61R)
# In short: as §1
# NRAS WT = NRAS WT (Homo sapiens, UniProt P01111+P62937)
# In short: as §1
# KRAS G12C = KRAS G12C (Homo sapiens, UniProt P01116+P62937, G12C); conditions: with Cyclophilin A
# In short: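 His6-K-Ras G12C-GMPPNP (12.5 nM), GST-BRAF RBD (50 nM) and tagless Cyclophilin A (25 μM) incubated 3 h at 25 °C with compound (10-point 3-fold series from 30 μM), pH 7.3 HEPES buffer. Anti-His Eu/anti-GST APC added for 1.5 h; decreased TR-FRET ratio vs DMSO gives IC50.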
# [1] = Ras-Raf disruption, read-out: KRAS G12D FRET data IC50
# [2] = Ras-Raf disruption, read-out: KRAS G12S FRET data IC50
# [3] = Ras-Raf disruption, read-out: KRAS G12V FRET data IC50
# [4] = Ras-Raf disruption, read-out: KRAS G13C FRET data IC50
# [5] = Ras-Raf disruption, read-out: KRAS G13D FRET data IC50
# [6] = KRAS Q61H, read-out: KRAS Q61H FRET data IC50
# [7] = Ras-Raf disruption, read-out: KRAS WT FRET data IC50
# [8] = NRAS G12C, read-out: NRAS G12C FRET data IC50
# [9] = NRAS Q61K, read-out: NRAS Q61K FRET data IC50
# [10] = NRAS Q61R, read-out: NRAS Q61R FRET data IC50
# [11] = NRAS WT, read-out: NRAS WT FRET data IC50
# [12] = Ras-Raf disruption, read-out: KRAS G12C FRET data IC50
# Chain of NRAS WT (P01111 whole entry): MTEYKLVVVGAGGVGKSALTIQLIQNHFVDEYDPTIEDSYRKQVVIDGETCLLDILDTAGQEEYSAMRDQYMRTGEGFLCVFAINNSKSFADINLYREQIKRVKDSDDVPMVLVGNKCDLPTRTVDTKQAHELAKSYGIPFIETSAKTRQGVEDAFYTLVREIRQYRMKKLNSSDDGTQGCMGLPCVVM
# Chain of NRAS WT (P62937 whole entry): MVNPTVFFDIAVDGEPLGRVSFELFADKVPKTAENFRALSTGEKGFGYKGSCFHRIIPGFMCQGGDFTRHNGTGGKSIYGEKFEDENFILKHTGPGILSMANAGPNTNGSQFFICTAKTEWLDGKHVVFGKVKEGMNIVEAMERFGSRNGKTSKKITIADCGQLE
# Chain of NRAS G12C (P01111 whole entry G12C): as the sequence (P01111 whole entry) above, with G12C counted along it
# Chain of NRAS G12C (P62937 whole entry): as the sequence (P62937 whole entry) above
# Chain of KRAS G13C (P01116 1-169 isoform P01116-2 G13C limits assumed): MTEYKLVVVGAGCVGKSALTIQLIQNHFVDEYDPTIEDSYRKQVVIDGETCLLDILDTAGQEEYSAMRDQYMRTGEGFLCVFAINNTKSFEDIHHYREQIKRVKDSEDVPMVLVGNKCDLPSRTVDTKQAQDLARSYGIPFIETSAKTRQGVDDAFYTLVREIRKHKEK
# Chain of KRAS G13C (P62937 whole entry): as the sequence (P62937 whole entry) above
# Chain of KRAS G12D (P01116 1-169 isoform P01116-2 G12D limits assumed): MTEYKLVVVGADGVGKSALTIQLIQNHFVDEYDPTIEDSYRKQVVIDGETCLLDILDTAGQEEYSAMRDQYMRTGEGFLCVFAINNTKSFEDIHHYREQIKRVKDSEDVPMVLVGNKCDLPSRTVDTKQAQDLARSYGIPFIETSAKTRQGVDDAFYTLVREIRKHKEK
# Chain of KRAS G12D (P62937 whole entry): as the sequence (P62937 whole entry) above
# Chain of KRAS Q61H (P01116 1-169 isoform P01116-2 Q61H limits assumed): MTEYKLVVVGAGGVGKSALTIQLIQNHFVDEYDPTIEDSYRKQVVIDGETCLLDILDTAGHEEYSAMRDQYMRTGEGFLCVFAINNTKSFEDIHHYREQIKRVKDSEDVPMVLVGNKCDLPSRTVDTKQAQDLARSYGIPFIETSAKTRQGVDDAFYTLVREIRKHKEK
# Chain of KRAS Q61H (P62937 whole entry): as the sequence (P62937 whole entry) above
# Chain of KRAS G13D (P01116 1-169 isoform P01116-2 G13D limits assumed): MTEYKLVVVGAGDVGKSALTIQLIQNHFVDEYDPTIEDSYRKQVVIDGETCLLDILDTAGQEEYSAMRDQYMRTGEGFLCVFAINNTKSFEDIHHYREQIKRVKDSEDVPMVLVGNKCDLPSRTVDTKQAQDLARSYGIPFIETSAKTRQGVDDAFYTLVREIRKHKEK
# Chain of KRAS G13D (P62937 whole entry): as the sequence (P62937 whole entry) above
# Chain of NRAS Q61K (P01111 whole entry Q61K): as the sequence (P01111 whole entry) above, with Q61K counted along it
# Chain of NRAS Q61K (P62937 whole entry): as the sequence (P62937 whole entry) above
# Chain of KRAS WT (P01116 1-169 isoform P01116-2 limits assumed): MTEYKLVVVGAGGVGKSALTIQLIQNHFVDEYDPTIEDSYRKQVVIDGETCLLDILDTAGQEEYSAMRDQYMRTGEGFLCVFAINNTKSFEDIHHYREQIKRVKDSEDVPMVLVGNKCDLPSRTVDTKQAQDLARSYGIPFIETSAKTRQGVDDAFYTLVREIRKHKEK
# Chain of KRAS WT (P62937 whole entry): as the sequence (P62937 whole entry) above
# Chain of KRAS G12S (P01116 1-169 isoform P01116-2 G12S limits assumed): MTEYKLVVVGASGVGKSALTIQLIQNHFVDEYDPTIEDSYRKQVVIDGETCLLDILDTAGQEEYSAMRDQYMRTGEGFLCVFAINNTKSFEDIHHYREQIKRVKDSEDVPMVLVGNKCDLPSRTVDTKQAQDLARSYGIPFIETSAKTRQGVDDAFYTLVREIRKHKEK
# Chain of KRAS G12S (P62937 whole entry): as the sequence (P62937 whole entry) above
# Chain of KRAS G12V (P01116 1-169 isoform P01116-2 G12V limits assumed): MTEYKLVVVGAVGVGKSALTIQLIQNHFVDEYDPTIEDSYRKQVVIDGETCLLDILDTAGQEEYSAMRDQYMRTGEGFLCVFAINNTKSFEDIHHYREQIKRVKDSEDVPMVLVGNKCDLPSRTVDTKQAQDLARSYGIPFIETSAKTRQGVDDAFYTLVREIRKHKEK
# Chain of KRAS G12V (P62937 whole entry): as the sequence (P62937 whole entry) above
# Chain of KRAS G12C (P01116 1-169 isoform P01116-2 G12C limits assumed): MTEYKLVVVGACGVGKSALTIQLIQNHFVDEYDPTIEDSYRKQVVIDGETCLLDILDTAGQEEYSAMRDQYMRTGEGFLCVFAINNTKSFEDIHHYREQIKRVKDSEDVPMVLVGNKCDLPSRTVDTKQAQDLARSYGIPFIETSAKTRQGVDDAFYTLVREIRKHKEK
# Chain of KRAS G12C (P62937 whole entry): as the sequence (P62937 whole entry) above
# Chain of NRAS Q61R (P01111 whole entry Q61R): as the sequence (P01111 whole entry) above, with Q61R counted along it
# Chain of NRAS Q61R (P62937 whole entry): as the sequence (P62937 whole entry) above
Compound,IC50 (KRAS G12D; [1]) [nM],IC50 (KRAS G12S; [2]) [nM],IC50 (KRAS G12V; [3]) [nM],IC50 (KRAS G13C; [4]) [nM],IC50 (KRAS G13D; [5]) [nM],IC50 (KRAS Q61H; [6]) [nM],IC50 (KRAS WT; [7]) [nM],IC50 (NRAS G12C; [8]) [nM],IC50 (NRAS Q61K; [9]) [nM],IC50 (NRAS Q61R; [10]) [nM],IC50 (NRAS WT; [11]) [nM],IC50 (KRAS G12C; [12]) [nM],other results
"CCn1c(-c2cccnc2[C@H](C)OC)c2c3cc(ccc31)-c1cc(O)cc(c1)C[C@H](NC(=O)[C@H](C(C)C)N(C)C(=O)[C@]1(F)CCN(C(=O)[C@H]3CN3)C1)C(=O)N1CCC[C@H](N1)C(=O)OCC(C)(C)C2 (atropisomer, axis not shown) [Example 311]",100 to 1000,100 to 1000,100 to 1000,10 to 100,100 to 1000,10 to 100,100 to 1000,< 10,100 to 1000,100 to 1000,10 to 100,< 10,
CCn1c(-c2cccnc2[C@H](C)OC)c2c3cc(ccc31)-c1cc(O)cc(c1)C[C@H](NC(=O)[C@H](C(C)C)N(C)C(=O)C13CC(CN1C(=O)[C@H]1CN1)C3)C(=O)N1CCC[C@H](N1)C(=O)OCC(C)(C)C2 [Example 164],,,,,,,,,,,,,"IC50 (KRAS G12D; KRAS G12D FRET data IC50, Ras-Raf disruption): 100 to 1000 nM; IC50 (KRAS G12S; KRAS G12S FRET data IC50, Ras-Raf disruption): 100 to 1000 nM; IC50 (KRAS G12V; KRAS G12V FRET data IC50, Ras-Raf disruption): 100 to 1000 nM; IC50 (KRAS G13C; KRAS G13C FRET data IC50, Ras-Raf disruption): 100 to 1000 nM; IC50 (KRAS G13D; KRAS G13D FRET data IC50, Ras-Raf disruption): 100 to 1000 nM; IC50 (KRAS Q61H): 10 to 100 nM; IC50 (KRAS WT; KRAS WT FRET data IC50, Ras-Raf disruption): 100 to 1000 nM; IC50 (NRAS G12C; NRAS G12C FRET data IC50, NRAS G12C): 100 to 1000 nM; IC50 (NRAS Q61K): 1000 to 10000 nM; IC50 (NRAS Q61R): 1000 to 10000 nM; IC50 (NRAS WT): 100 to 1000 nM; IC50 (KRAS G12C; KRAS G12C FRET data IC50, Ras-Raf disruption): 100 to 1000 nM"
CCn1c(-c2cccnc2[C@H](C)OC)c2c3cc(ccc31)-c1cc(O)cc(c1)C[C@H](NC(=O)[C@H](C(C)C)N(C)C(=O)[C@H]1CCN(C(=O)C3OC3c3ccccc3)C1)C(=O)N1CCC[C@H](N1)C(=O)OCC(C)(C)C2 (stereo partly drawn) [Example 331],100 to 1000,10 to 100,10 to 100,10 to 100,100 to 1000,10 to 100,10 to 100,10 to 100,100 to 1000,100 to 1000,10 to 100,< 10,
